Reference: patent publication US9260382B2, “Methods of reducing virulence in bacteria” (priority 2010, dated 2016)

How the values were obtained:
[1] = test system: HrpW protein; assay: HrpW immunoblot analysis; type: cell-based, Pseudomonas syringae pv. tomato DC3000; details: HIM supplemented with 250 μM
Method: The HrpW protein level was determined by immunoblot using anti-HrpW antibody provided by Dr. Alan Collmer (Cornell University, Ithaca, N.Y.). Sample preparation was performed as previously described with modifications (Yuan and He 1996). Wild-type DC3000 was grown overnight in King's B medium at 28° C. The culture was washed with hrp-inducing medium (HIM) and resuspended in 40 ml of the same medium to an optical density (OD) at 600 nm of 0.1. To determine the effect of TCA on the HrpW protein level, TCA dissolved in DMSO was added to the culture at the final concentration of 250 μM and the culture was grown with moderate shaking at 28° C. DMSO was added to a separate culture as a negative control. After 9 h, the cells were collected by centrifugation at 4,000×g for 10 min and resuspended in 1 ml of phosphate buffered saline (PBS; 137 mM NaCl, 2.7 mM KCl, 4.3 mM Na2HPO4, and 1.47 mM KH2PO4 [pH 7.4]). […]

[2] = test system: hrpW mRNA; assay: Real-time PCR of hrpW in DC3000; type: cell-based, Pseudomonas syringae pv. tomato DC3000; details: HIM supplemented with 250 μM, 9 h
Method: DC3000 was cultured in KB medium overnight at 28° C. and subcultured in HIM medium supplemented with DMSO or with 250 μM TCA for 9 h. Total bacterial RNA was isolated using RNeasy Mini Kit (QIAGEN, Valencia, Calif.) and treated with Turbo DNA-free DNase kit (Ambion, Austin, Tex.). cDNA was synthesized using iScript cDNA Synthesis Kit (Bio-Rad, Hercules, Calif.) from 0.8 μg of total RNA. The Real Master Mix SYBR ROX (5 PRIME, Gaithersburg, Md.) was used for real-time PCR reactions to quantify the cDNA level of target genes in different samples. Data were collected by the Opticon 2 system (Bio-Rad) and analyzed using Relative Expression Software Tool as described by Pfaffl and associates (Pfaffl et al. 2002). Two housekeeping genes, gyrA (PSPTO1745) and gap1 (PSPTO1287) were used as endogenous controls for data analysis. The PCR efficiencies of the primers are: gyrA, 1.93; gap1, 2.08; and hrpW, 1.93.

[3] = test system: hrpA mRNA; assay: qRT-PCR relative mRNA level of hrpA; type: cell-based, Dickeya dadantii 3937; details: 0.1 mM in MM
Method: (§1) Bacterial strains were grown in MM. Total RNA from the bacterial cells was isolated by using the TRI reagent method (Sigma, Mo.) and treated with Turbo DNA-free DNase kits (Ambion, Tex.) as described (Peng et al., 2006). An iScript cDNA Synthesis Kit (Bio-Rad, CA) was used to synthesize cDNA from 0.5 μg of treated total RNA. The Real Master Mix (Eppendorf, Westbury, N.Y.) was used for qRT-PCR reaction to quantify the cDNA level of target genes in different samples. The rplU was used as the endogenous control for data analysis. qRT-PCR data were analyzed using Relative Expression Software Tool as described (Pfaffl, M. W., Horgan, G. W., and Dempfle, L. (2002) Relative expression software tool (REST) for group-wise comparison and statistical analysis of relative expression results in real-time PCR. Nucleic Acids Res 30:e36.).

[4] = test system: hrpY mRNA; assay: qRT-PCR relative mRNA level of hrpY; type: cell-based, Dickeya dadantii 3937; details: 0.1 mM in MM
Method: as §1

[5] = test system: P. aeruginosa; assay: P. aeruginosa bacterial growth with compound; type: cell-based, P. aeruginosa PA01
Method: To identify T3SS inhibitors of PA01, a promoter-probe vector pPROBE-AT containing the promoterless green fluorescent protein (gfp) gene was used to construct an exoS promoter-gfp plasmid reporter, pATexoS. PA01 containing pATexoS was cultured in T3SS-inducing medium containing dimethyl sulfoxide (DMSO; solvent of chemical compounds), or supplemented with 250 μM of each compound, and promoter activity was assessed at 6 h by measuring GFP intensity using flow cytometry. 101 compounds (58 synthesized and 43 commercially available) were screened. Compounds 027, 032, 101, and 149 repressed exoS expression at the final concentration of 250 μM by at least one standard deviation below the sample average (Z score≦−1) (FIG. 37 A-E). Z score (or standard score) indicates how many standard deviations an observation or datum is above or below the mean [z=(x−μ)/σ, where x is a raw score to be standardized, μ is the mean of the population, and σ is the standard deviation of the population].
To determine the effective concentration of compounds, the dose-dependent effect of potential inhibitors on exoS expression and bacterial growth were tested. P. aeruginosa cells carrying pATexoS were pre-cultured in LB supplemented with 200 mM NaCl and transferred to fresh LB with 200 mM NaCl, 10 mM NTA, and various concentrations of compounds (20, 50, 100, and 250 μM) or DMSO for 6 h. […] At 50 μM dosage, both 027 and 101 inhibited exoS expression at similar levels, and this inhibitory effect increased as compound concentration increased (FIG. 38A and Table 17). […] These inhibitions/inductions of exoS expression are caused by the shifting bacterial population between low-state expression cells and high-state expression cells (FIG. 40).

[6] = test system: rsmB RNA; assay: Northern blot analysis of rsmB RNA; type: cell-based, D. dadanti 3937; details: bacterial cells cultured in media supplemented with compound (FIG. 23)
Excerpt: Northern blot analysis was used to quantify rsmB RNA of D. dadanti 3937.

With `O=C(O)/C=C/c1ccccc1` [Compound 001, trans-cinnamic acid] the “HrpW protein in culture supernatants, immunoblot, in words” value [1] was “absent from the culture supernatants”, the “HrpW protein in whole cell lysates, immunoblot, in words” value [1] was “undetectable in the whole cell lysates” and the “hrpW mRNA relative expression ratio vs HIM alone” value [2] was 0.07.

With `O=C(O)/C=C/c1ccc(O)cc1` [Compound 004, para-coumaric acid] the “hrpA mRNA compared with MM alone, in words” value [3] was “significantly lower amount of mRNA”.

For `O=C(O)/C=C/c1ccccc1O` [Compound 006, Ortho-coumaric acid], the “hrpA mRNA compared with MM alone, in words” value [3] was “significantly higher amount” and the “hrpY mRNA compared with MM alone, in words” value [4] was “No significant difference”.

In the case of `O=C(/C=C/c1ccc(O)cc1)NO` [Compound 103, trans-4-Hydroxycinnamohydroxamic acid], the “effect on bacterial growth, in words” value ([5]; P. aeruginosa, 250 μM) is reported as “some inhibition on bacterial growth”, the “dose-dependent effect on P. aeruginosa growth, in words” value ([5]; various concentrations (up to 250 μM for 101, up to 500 μM for 027), FIG. 39) is reported as “inverse relationship was observed between the compound concentration and bacterial growth” and the “rsmB RNA level, Northern blot, in words” value [6] is reported as “reduced rsmB mRNA”.
